Read-outs that look alike come from different tables or passages of the source.

For assay [1], the system named is TLR4 expression on macrophages. In words: Flow cytometry of TLR4 receptor on macrophages. It counts as cell-based, human. The settings on record: 48 h incubation. As for the experimental part:
The effect of the above-listed compounds on the expression of the TLR4 receptor and the CD86 protein was studied by flow cytometry after 48 h incubation with macrophages. The interaction of bacterial endotoxins with the TLR4 receptor is known to activate the expression of several pro-inflammatory cytokine genes, while the co-stimulatory molecule CD86 plays an important role in […] inflammatory responses. A decrease in the expression of the TLR4 receptor was observed under the action of all tested compounds (Figure 4c,e), the rank order of these TLR4-suppressing effects was as follows: hypaphorine (14%) < PNU 282,987 (21%) < 6ID (31%).
(§1) Peripheral blood mononuclear cells (PBMCs) were separated by Ficoll-Paque PLUS density gradient centrifugation. PBMCs were placed in a sterile Petri dish and incubated at 37 °C for 2 h. Unattached cells were then removed by washing with PBS and substituted with fresh complete RPMI 1640 medium. To generate monocyte-derived macrophages (MDMs), 50 ng/mL GM-CSF was added to the isolated monocytes and cultured for 6 days to differentiate them into non-polarized MDMs.
Figure 4 The effects of PNU 282987, hypaphorine, and D-6-iodohypaphorine methyl ester (6ID) on macrophage membrane proteins expression. Cells were treated with these compounds for 48 h and then analyzed by flow cytometry. PNU 282,987 led to an increase in the (a) CD11b and (b) CD11c expression. (c): All tested compounds led to a decrease in TLR4 expression. (d): Macrophages stimulation with hypaphorine and 6ID promoted an increase in CD86 expression. Results obtained in three independent experiments on macrophages from different donors and presented as mean ± SD. One-way ANOVA tests with Tukey post hoc test: * p ˂0.05, ** p ˂ 0.01, **** p < 0.0001 in comparison with untreated cells.
A general note: Flow cytometry measures light scatter and fluorescence of single cells or particles in a stream.

The next assay concerns STAT3 phosphorylation. In words: STAT3 phosphorylation in LPS-stimulated macrophages (flow cytometry). It counts as cell-based, human. Conditions: compound 1 h, then LPS 3 h; control MFI 49. As for the experimental part: To gain an insight into the signaling induced by the tested compounds, ERK1/2 and STAT3 phosphorylation was checked. Macrophages were treated with tested compounds for 1 h, after which they were stimulated with LPS for 3 h.
as §1
Figure 5 Effects of the analyzed compounds on signaling pathways in LPS-stimulated macrophages. Cells were treated with PNU 282987, hypaphorine, or 6-iodohypaphorine methyl ester (6ID) for 1 h and then stimulated with LPS for 3 h. Phosphorylated ERK1/2 and STAT3 were quantified by flow cytometry with specific antibodies. […] (c): Representative histogram showing the increase in ERK 1/2 phosphorylation in comparison to control. The numbers in the histograms show the MFI ± SD (n = 3). MFI—geometrical mean fluorescence intensity. One-way ANOVA tests with Tukey post hoc test: * p ˂ 0.05, ** p ˂ 0.01, *** p < 0.001 in comparison with untreated cells. TEXT PRINTED IN THE PICTURE: (c) Control: PE-ERK 1/2 Phospho: 193.7±1.5 | (c) PNU 282987: PE-ERK 1/2 Phospho: 251.3±13.7 | (c) Hy: PE-ERK 1/2 Phospho: 246.0±15.7 | (c) 6ID: PE-ERK 1/2 Phospho: 273.7±8.1 DOUBTS OF THE COPYIST ABOUT THIS PICTURE: Panel c: no measure or unit is printed beside the numbers; the x-axis label "PE-ERK 1/2 Phospho" is used as the measure / "Control" is the untreated reference rather than a substance; it is included because a value is printed with it

For another assay, the target named is T1, human α7 nAChR (Homo sapiens, UniProt P36544).
T1 construct: expressed in transfected cells; host or cells: mouse neuroblastoma Neuro2a, transient co-transfection with Ric-3 (Ric3-pCMV6-XL5, OriGene) and the calcium sensor Case12
Nature of the assay: Calcium fluorescence assay on α7 nAChR expressed in Neuro2a cells, in the presence of PNU120596. Conditions: for α7 nAChR agonistic activity: at concentrations up to 1 mM, PNU 120,596 present. It counts as cell-based. The procedure: A panel of the synthesized compounds was tested to determine their activity on α7 nAChR by fluorescence detection of cytoplasmic calcium rise (Figure 2a).
Mouse neuroblastoma Neuro2a cells were purchased from the Russian collection of cell cultures (Institute of Cytology, Russian Academy of Sciences, Saint Petersburg, Russia). Cells were cultured in Dulbecco’s modified Eagle’s essential medium (Paneco, Moscow, Russia) supplemented with 10% fetal bovine serum (Sigma, St. Louis, MO, USA). The cells one day before transfection were subcultured and plated at a density of 10,000 cells per well on a 96-well plate. The next day, Neuro2a cells were transiently transfected with plasmids coding α7 nAChR (human α7 nAChR-pCEP4) or its mutants, the chaperone Ric-3 (Ric3-pCMV6-XL5, OriGene, USA) and a fluorescent calcium sensor Case12 (pCase12-cyto vector, Evrogen, Russia) in molar ratio 4:1:1. Lipofectamine transfection protocol (Invitrogen, Waltham, MA, USA) was performed as recommended by the manufacturer. Transfected cells were grown at 37 °C in a CO2 incubator for 48 h.
Calcium […] assay was performed as described previously. Briefly, Transfected Neuro2a cells were grown on black 96-well plates (Corning, Somerville, MA, USA) at 37 °C in a CO2 incubator for 72 h, then growth medium was substituted with buffer containing 140 mM NaCl, 2 mM CaCl2, 2.8 mM KCl, 4 mM MgCl2, 20 mM HEPES, 10 mM glucose; pH 7.4.
Cells were incubated with the α7 nAChR positive allosteric modulator PNU120596 (10 μM, Tocris, Bristol, UK) for 20 min at room temperature before the addition of tested compounds. Plates were measured in microplate reader Hidex Sence (Hidex, Turku, Finland) using excitation at 485 nm and emission at 535 ± 10 nm. Fluorescence peak intensity in each well was expressed as a percentage of the maximal obtained response. Data files were analysed using Hidex Sence software (Hidex, Turku, Finland). Controls were run in the presence of 4 μM α-cobratoxin.
The R statistical programming environment “https://www.r-project.org/” (accessed on 16 June 2023) was used to analyze the results. Base R graphics and ggplot2 [54] graphical library were used for the data visualisation. Dose-response curves were fitted using “nlm” function and the following equation: response ~ (100/1 + (EC50/x)^n), where x denotes base 10 logarithm of ligand concentration in moles per liter (normalized to 1M) and n is the Hill coefficient. Libraries “rgl” “https://CRAN.R-project.org/package=rgl” (accessed on 16 May 2023) and “barplot3d” “https://cran.r-project.org/src/contrib/Archive/barplot3d/” (accessed on 16 May 2023) were used to generate the 3D bar chart shown on Figure 2b.
Figure 2 In vitro activity determination of the synthesized compounds. […] The receptor activation was detected as an increase in fluorescent signal in cell cytoplasm by fluorescence microscopy or as total fluorescence of the well in 96-well plate reader setup. Normalized fluorescence amplitude was plotted against base 10 logarithm of mole per liter concentration of the tested agonist and EC50 values were than calculated using dose-response equation. […] Substitutions in the 6th position of the indole ring (designated as X) were halogens (green shadow), hydrogen bond acceptors (yellow shadow) or hydrogen bond donors (blue shadow). Carboxy group modifications were comprised by free acid (Q = OH), ethers (Q = OCH3, OC2H5), and amides (Q = NH2, NHCH3).

T1 sequence (P36544 23-502): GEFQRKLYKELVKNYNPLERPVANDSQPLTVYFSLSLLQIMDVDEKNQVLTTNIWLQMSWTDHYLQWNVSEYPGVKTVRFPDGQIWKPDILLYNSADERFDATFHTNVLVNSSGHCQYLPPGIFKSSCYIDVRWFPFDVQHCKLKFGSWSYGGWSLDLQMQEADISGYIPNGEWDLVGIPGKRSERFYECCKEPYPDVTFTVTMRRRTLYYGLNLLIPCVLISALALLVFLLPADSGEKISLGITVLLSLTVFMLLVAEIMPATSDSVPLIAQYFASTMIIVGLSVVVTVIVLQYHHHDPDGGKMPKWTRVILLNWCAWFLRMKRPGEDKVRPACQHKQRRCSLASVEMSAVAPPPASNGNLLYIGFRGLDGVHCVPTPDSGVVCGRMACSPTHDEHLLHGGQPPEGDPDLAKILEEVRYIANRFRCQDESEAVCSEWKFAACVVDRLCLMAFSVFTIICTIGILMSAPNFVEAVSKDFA

In general, EC50 refers to the concentration that produces a half-maximal response. For the molecule `COC(=O)[C@@H](Cc1c[nH]c2cc(I)ccc12)[N+](C)(C)C` [Compound 1, (D)-6-iodohypaphorine methyl ester], the “decrease in the expression of the TLR4 receptor” value in assay [1] came to 31%. In addition, in the assay on STAT3 phosphorylation, the “STAT3 phosphorylation, MFI” value came to 58. Further, at human α7 nAChR, the half-maximal effective concentration (EC50) was found to be 0.61 µM.
Regarding `COC(=O)C(Cc1c[nH]c2cc([N+](=O)[O-])ccc12)[N+](C)(C)C` (stereo not drawn) [Compound 5, methyl ester of 6-nitrohypaphorine], the EC50 on human α7 nAChR (human α7 nAChR in Neuro2a cells, PNU120596 10 μM present, read-out: EC50) was 14 µM.
As to `C[N+](C)(C)[C@H](Cc1c[nH]c2ccccc12)C(=O)[O-]` [Compound 16, L-hypaphorine, reference compound], in assay [1], the “decrease in the expression of the TLR4 receptor” value was found to be 14%. In addition, in the assay with STAT3 phosphorylation, the “STAT3 phosphorylation, MFI” value is reported as “increase in the phosphorylation”. Besides, the figures for the “α7 nAChR agonistic activity” value on human α7 nAChR (listed as Hypaphorine) and on human α7 nAChR (listed as L-hypaphorine) were “did not show α7 nAChR agonistic activity” and “failed to activate α7 nAChR”, respectively. Also, the EC50 result on human α7 nAChR (human α7 nAChR in Neuro2a cells, PNU120596 10 μM present) is recorded as “no agonistic activity”.

For the origin of these results see paper PMC10305119, “Analogs of 6-Bromohypaphorine with Increased Agonist Potency for α7 Nicotinic Receptor as Anti-Inflammatory Analgesic Agents” (Marine Drugs, 2023).
